Data on three molecules can be found in patent US12350473B2 (priority 2018, dated 2025).

Read-outs that look alike come from different tables or passages of the source.

For data set [1] the following is noted: in vivo, cited from earlier work.
The conditions of data set [2]: in vivo; cited from earlier work.
For data set [3], the system named is quadriceps femoris muscle injection site. Briefly: Example 13: GLP local tolerance study of naloxone following intramuscular injection. The class given is in vivo, New Zealand White Rabbits. As to conditions: for injection site findings: 7-day observation. How it is done:
Mortality and clinical observations were recorded twice daily. […] On Day 8, the animals were euthanized and subject to a necropsy examination. A full tissue list was preserved, but only the test site and contralateral site in the other quadriceps femoris were processed for histopathological evaluation.

For data set [4] the following is noted: in vivo; cited from earlier work. This is another data set of the same source.
A further data set relates to morphine effects. As to conditions: cited from earlier work.
The next data set has as its system respiratory depression. As to conditions: IV morphine […] reversed with naloxone 0.4 mg; cited from earlier work.
For another data set, the system named is opioid overdose. The data set can be described thus: Examples 10-12: high dose naloxone injection in emergency room opioid overdose cases. The class given is in vivo, human. How it is done: (§1) A person is admitted to a local emergency room suffering from an opioid overdose. A high dose naloxone composition is administered by injection to the person.
as §1

In data set [5] the test system is buprenorphine intravenous induced respiratory depression. As to conditions: 5 mg and 10 mg naloxone intravenously; cited from earlier work.

As for `CN1CC[C@]23c4c5ccc(O)c4O[C@H]2[C@@H](O)C=C[C@H]3[C@H]1C5` [morphine], in data set [1] (iv), the analgesic onset was 6 min and the duration of action is 96 min. The duration of action entry in data set [1] is recorded as “Longer”.

Usually half-life stands for how long it takes for the measured level to halve. On to `CC(=O)Oc1ccc2c3c1O[C@H]1[C@@H](OC(C)=O)C=C[C@H]4[C@@H](C2)N(C)CC[C@@]341` [heroin], for which the half-life in data set [2] was 3 to 7 h.

Take `C=CCN1CC[C@]23c4c5ccc(O)c4O[C@H]2C(=O)CC[C@@]3(O)[C@H]1C5` [naloxone]: in data set [3] (males receiving 15 mg/animal, attributed to the shaving procedure), the “erythema at injection site” value is on record as “low incidence of slight erythema”. For the same molecule, the “histology: effect on the examined tissue” value in data set [3] (rabbits, 5 mg/0.5 mL three times (15 mg total dose), Day 8 necropsy) is “no evidence”. The injection site findings result is given as “no injection site findings attributed to treatment” in data set [3] (rabbits, IM injection in 3 sites each 2 mg/0.4 mL (total 6 mg)) and “no injection site findings attributed to treatment” in data set [3] (rabbits, IM injection in 3 sites each 5 mg/0.5 mL (total 15 mg)). Besides, the distribution half-life in data set [4] was 4.7 min. For the same molecule, in data set [4], the “elimination half-life (average)” value is 1.08 h. The “reversal of morphine effects at the 30 mg dose” value with morphine effects (30 mg i.m. naloxone) is reported as “no additional reversal”. In addition, in the data set on morphine effects (intra-muscular, 70 kg subject, morphine 18 or 30 mg/70 kg i.m.), the “naloxone dose up to which reversal of the morphine effects was dose related” value is on record as “up to 10 mg”. Moreover, the “return to severe respiratory depression after reversal” value in the data set with respiratory depression is at most 30 min. For the same molecule, the “outcome of opioid overdose” value with opioid overdose (Example 10: person, 5 mg in a single injection) is “recovers from the overdose event”; in the data set with opioid overdose (Example 11: person, 10 mg in a single injection), “recovers from the overdose event”; in the data set on opioid overdose (Example 12: person, 20 mg in a single injection), “recovers from the overdose event”. For the same molecule, the “reversal of opioid effects” value in data set [5] is recorded as “Complete reversal”.
